Assay results taken from article PMC4114533, “Synthesis, Anti-tubulin and Antiproliferative SAR of Steroidomimetic Dihydroisoquinolinones” (Chemmedchem, 2014).

How the values were obtained:
[1] = system: DU-145 human prostate cancer cells; assay: Antiproliferative assay (WST-1, 96 h), DU-145; type: cell-based; conditions: for GI50: Homo sapiens, DU-145 cells, 96 h, WST-1, mean of three determinations; for antiproliferative activity (in words): in vitro antiproliferative activity, result in words
Experimental: (§1) Cell lines: DU-145 (brain metastasis carcinoma of the prostate) and MDA MB-231 (metastatic pleural effusion of breast adenocarcinoma) established human cell lines were obtained from ATCC Global Bioresource Center. Cells were maintained in a 5 % CO2 humidified atmosphere at 37 °C in RPMI-1640 medium, supplemented with 10 % fetal bovine serum, penicillin, (100 U mL^−1), and streptomycin (0.1 mg mL^−1). The effect of drugs on tubule formation was assessed using an angiogenesis kit (TCS-Cellworks).
(§2) Antiproliferative assays: DU-145 and MDA MB-231 cells were seeded into 96-well microtitre plates (5000 cells per well) and treated with compound (10^−9–10^−4 M) or with vehicle control. At 96 h post-treatment, live cell counts were determined by WST-1 cell proliferation assay (Roche, Penzberg, Germany), as per the manufacturer’s instructions. Viability results were expressed as a percentage of mean control values resulting in the calculation of the 50 % growth inhibition (GI50). All experiments were performed in triplicate.

[2] = system: MDA MB-231 human breast cancer cells; assay: Antiproliferative assay (WST-1, 96 h), MDA MB-231; type: cell-based; conditions: MDA MB-231 cells, WST-1, mean of three determinations
Experimental: as §1, §2

Row | SMILES | GI50 [1] | melting point | GI50 [2] | antiproliferative activity (in words) [1]
1 | COc1ccc(CN2CCc3cc(O)c(OC)cc3C2=O)cc1 [8 c, 6-Hydroxy-7-methoxy-2-(4-methoxybenzyl)-3,4-dihydroisoquinolin-1(2H)-one] | > 100 µM | 171 to 172 °C | – | –
2 | COc1cc(CN2CCc3cc(O)c(OC)cc3C2=O)cc(OC)c1 [8 d, 6-Hydroxy-7-methoxy-2-(3,5-dimethoxybenzyl)-3,4-dihydroisoquinolin-1(2H)-one] | > 100 µM | – | – | –
3 | COc1cc2c(cc1O)CCN(Cc1cc(OC)c(OC)c(OC)c1)C2=O [8 e, 6-Hydroxy-7-methoxy-2-(3,4,5-trimethoxybenzyl)-3,4-dihydroisoquinolin-1(2H)-one] | > 100 µM | – | – | –
4 | COc1ccccc1CN1CCc2cc(OS(N)(=O)=O)c(OC)cc2C1=O [9 a, 7-Methoxy-2-(2-methoxybenzyl)-6-sulfamoyloxy-3,4-dihydroisoquinolin-1(2H)-one] | > 100 µM | – | – | –
5 | COc1cccc(CN2CCc3cc(OS(N)(=O)=O)c(OC)cc3C2=O)c1 [9 b, 7-Methoxy-2-(3-methoxybenzyl)-6-sulfamoyloxy-3,4-dihydroisoquinolin-1(2H)-one] | > 100 µM | 139 to 140 °C | – | –
6 | COc1ccc(CN2CCc3cc(OS(N)(=O)=O)c(OC)cc3C2=O)cc1 [9 c, 7-Methoxy-2-(4-methoxybenzyl)-6-sulfamoyloxy-3,4-dihydroisoquinolin-1(2H)-one] | > 100 µM | – | – | –
7 | COc1cc(CN2CCc3cc(OS(N)(=O)=O)c(OC)cc3C2=O)cc(OC)c1 [9 d, 7-Methoxy-2-(3,5-dimethoxybenzyl)-6-sulfamoyloxy-3,4-dihydroisoquinolin-1(2H)-one] | > 100 µM | – | – | –
8 | COc1cc2c(cc1OS(N)(=O)=O)CCN(Cc1cc(OC)c(OC)c(OC)c1)C2=O [9 e, 7-Methoxy-6-sulfamoyloxy-2-(3,4,5-trimethoxybenzyl)-3,4-dihydroisoquinolin-1(2H)-one] | > 100 µM | – | – | –
9 | COc1cc2c(cc1OCc1ccccc1)CCN(S(=O)(=O)c1ccccc1OC)C2=O [10 a, 6-Benzyloxy-7-methoxy-2-((2-methoxyphenyl)sulfonyl)-3,4-dihydroisoquinolin-1(2H)-one] | > 100 µM | – | > 100 µM | –
10 | COc1cccc(S(=O)(=O)N2CCc3cc(OCc4ccccc4)c(OC)cc3C2=O)c1 [10 b, 6-Benzyloxy-7-methoxy-2-((3-methoxyphenyl)sulfonyl)-3,4-dihydroisoquinolin-1(2H)-one] | > 100 µM | – | > 100 µM | –
11 | COc1cc2c(cc1OCc1ccccc1)CCN(S(=O)(=O)c1cccc(Cl)c1)C2=O [10 d, 6-Benzyloxy-7-methoxy-2-((3-chlorophenyl)sulfonyl)-3,4-dihydroisoquinolin-1(2H)-one] | > 100 µM | – | > 100 µM | –
12 | COc1cc2c(cc1O)CCN(S(=O)(=O)c1ccccc1OC)C2=O [11 a, 6-Hydroxy-7-methoxy-2-((2-methoxyphenyl)sulfonyl)-3,4-dihydroisoquinolin-1(2H)-one] | > 100 µM | – | 13.4 µM | –
13 | COc1cccc(S(=O)(=O)N2CCc3cc(O)c(OC)cc3C2=O)c1 [11 b, 6-Hydroxy-7-methoxy-2-((3-methoxyphenyl)sulfonyl)-3,4-dihydroisoquinolin-1(2H)-one] | > 100 µM | – | > 100 µM | –
14 | COc1ccc(S(=O)(=O)N2CCc3cc(OS(N)(=O)=O)c(OC)cc3C2=O)cc1 [12 c, 7-Methoxy-2-((4-methoxyphenyl)sulfonyl)-6-(sulfamoyloxy)-3,4-dihydroisoquinolin-1(2H)-one] | > 100 µM | – | > 100 µM | –
15 | COc1cc2c(cc1OCc1ccccc1)CCN(C(=O)c1ccccc1OC)C2=O [15 a, 6-Benzyloxy-2-(2-methoxybenzoyl)-7-methoxy-3,4-dihydroisoquinolin-1(2H)-one] | > 100 µM | – | 43.6 µM | –
16 | COc1cc2c(cc1OCc1ccccc1)CCN(C(=O)c1cccc(C#N)c1)C2=O [15 c, 6-Benzyloxy-2-(3-cyanobenzoyl)-7-methoxy-3,4-dihydroisoquinolin-1(2H)-one] | > 100 µM | – | > 100 µM | –
17 | COc1ccc(C(=O)N2CCc3cc(OCc4ccccc4)c(OC)cc3C2=O)cc1 [15 d, 6-Benzyloxy-2-(4-methoxybenzoyl)-7-methoxy-3,4-dihydroisoquinolin-1(2H)-one] | > 100 µM | – | – | –
18 | COc1ccc(C(=O)N2CCc3cc(OCc4ccccc4)c(OC)cc3C2=O)cc1OC [15 e, 6-Benzyloxy-2-(3,4-dimethoxybenzoyl)-7-methoxy-3,4-dihydroisoquinolin-1(2H)-one] | > 100 µM | – | – | –
19 | COc1cc(OC)cc(C(=O)N2CCc3cc(OCc4ccccc4)c(OC)cc3C2=O)c1 [15 f, 6-Benzyloxy-2-(3,5-dimethoxybenzoyl)-7-methoxy-3,4-dihydroisoquinolin-1(2H)-one] | > 100 µM | – | – | –
20 | COc1cc2c(cc1OCc1ccccc1)CCN(C(=O)c1cc(OC)c(OC)c(OC)c1)C2=O [15 g, 6-Benzyloxy-7-methoxy-2-(3,4,5-trimethoxybenzoyl)-3,4-dihydroisoquinolin-1(2H)-one] | > 100 µM | – | 77.5 µM | –
21 | COc1ccc(C(=O)N2CCc3cc(O)c(OC)cc3C2=O)cc1 [16 d, 6-Hydroxy-2-(4-methoxybenzoyl)-7-methoxy-3,4-dihydroisoquinolin-1(2H)-one] | > 100 µM | – | – | inactive
22 | COc1cc2c(cc1O)CCN(C(=O)c1ccc(OC)c(OC)c1)C2 [18 a, 2-(3,4-Dimethoxybenzoyl)-6-hydroxy-7-methoxy-1,2,3,4-tetrahydroisoquinoline] | > 100 µM | – | – | completely inactive
23 | COc1ccc(C(=O)N2CCc3cc(OS(N)(=O)=O)c(OC)cc3C2)cc1OC [19 a, 2-(3,4-Dimethoxybenzoyl)-7-methoxy-6-sulfamoyloxy-1,2,3,4-tetrahydroisoquinoline] | > 100 µM | – | – | completely inactive

Now from value to molecule, other results behind:

Row | GI50 [1] | melting point | GI50 [2] | SMILES | antiproliferative activity (in words) [1]
24 | > 100 µM | – | – | COc1cc(CN2CCc3cc(OCc4ccccc4)c(OC)cc3C2=O)cc(OC)c1 [7 d, 6-Benzyloxy-7-methoxy-2-(3,5-dimethoxybenzyl)-3,4-dihydroisoquinolin-1(2H)-one] | –
25 | > 100 µM | – | – | COc1cc2c(cc1OCc1ccccc1)CCN(Cc1cc(OC)c(OC)c(OC)c1)C2=O [7 e, 6-Benzyloxy-7-methoxy-2-(3,4,5-trimethoxybenzyl)-3,4-dihydroisoquinolin-1(2H)-one] | –
26 | > 100 µM | – | – | COc1cc2c(cc1O)CCN(Cc1ccccc1OC)C2=O [8 a, 6-Hydroxy-7-methoxy-2-(2-methoxybenzyl)-3,4-dihydroisoquinolin-1(2H)-one] | –
27 | > 100 µM | 181 to 182 °C | – | COc1cccc(CN2CCc3cc(O)c(OC)cc3C2=O)c1 [8 b, 6-Hydroxy-7-methoxy-2-(3-methoxybenzyl)-3,4-dihydroisoquinolin-1(2H)-one] | –
28 | 26.7 µM | – | – | COc1ccc(C(=O)N2CCc3cc(OCc4ccccc4)c(OC)cc3C2)cc1OC [14 e, 6-Benzyloxy-2-(3,4-dimethoxybenzoyl)-7-methoxy-1,2,3,4-tetra-hydroisoquinoline] | –
29 | 46.8 µM | – | – | COc1cc(OC)cc(C(=O)N2CCc3cc(OCc4ccccc4)c(OC)cc3C2)c1 [14 f, 6-Benzyloxy-2-(3,5-dimethoxybenzoyl)-7-methoxy-1,2,3,4-tetra-hydroisoquinoline] | –
30 | 62.7 µM | – | 18.9 µM | COc1cc2c(cc1OCc1ccccc1)CCN(C(=O)c1cc(OC)c(OC)c(OC)c1)C2 [14 g, 6-Benzyloxy-7-methoxy-2-(3,4,5-trimethoxybenzoyl)-1,2,3,4-tetrahydroisoquinoline] | –
31 | 6.42 µM | – | 5.6 µM | COc1cc2c(cc1O)CCN(C(=O)c1ccccc1OC)C2=O [16 a, 6-Hydroxy-2-(2-methoxybenzoyl)-7-methoxy-3,4-dihydroisoquinolin-1(2H)-one] | –
32 | 3.63 µM | – | 1.89 µM | COc1cccc(C(=O)N2CCc3cc(O)c(OC)cc3C2=O)c1 [16 b, 6-Hydroxy-2-(3-methoxybenzoyl)-7-methoxy-3,4-dihydroisoquinolin-1(2H)-one] | –
33 | 70 µM | – | 37.4 µM | COc1cc2c(cc1O)CCN(C(=O)c1cccc(C#N)c1)C2=O [16 c, 2-(3-Cyanobenzoyl)-6-hydroxy-7-methoxy-3,4-dihydroisoquinolin-1(2H)-one] | –
34 | 9.1 µM | – | 7.1 µM | COc1cc2c(cc1OS(N)(=O)=O)CCN(C(=O)c1ccccc1OC)C2=O [17 a, 2-(2-Methoxybenzoyl)-7-methoxy-6-sulfamoyloxy-3,4-dihydroisoquinolin-1(2H)-one] | –
35 | 5.3 µM | – | 3.5 µM | COc1cccc(C(=O)N2CCc3cc(OS(N)(=O)=O)c(OC)cc3C2=O)c1 [17 b, 2-(3-Methoxybenzoyl)-7-methoxy-6-sulfamoyloxy-3,4-dihydroisoquinolin-1(2H)-one] | –
36 | 3.4 µM | – | 2.08 µM | COc1ccc(C(=O)N2CCc3cc(OS(N)(=O)=O)c(OC)cc3C2=O)cc1OC [17 e, 2-(3,4-Dimethoxybenzoyl)-7-methoxy-6-sulfamoyloxy-3,4-dihydroisoquinolin-1(2H)-one] | –
37 | 6.4 µM | – | – | COc1cc(OC)cc(C(=O)N2CCc3cc(O)c(OC)cc3C2)c1 [18 b, 2-(3,5-Dimethoxybenzoyl)-6-hydroxy-7-methoxy-1,2,3,4-tetrahydroisoquinoline] | –
38 | 9 µM | – | – | COc1cc(OC)cc(C(=O)N2CCc3cc(OS(N)(=O)=O)c(OC)cc3C2)c1 [19 b, 2-(3,5-Dimethoxybenzoyl)-7-methoxy-6-sulfamoyloxy-1,2,3,4-tetrahydroisoquinoline] | –
